In patent US8188081B2, “Methods of treating inflammation using prokineticin 1 receptor antagonists” (Janssen Pharmaceutica, NV, priority 2005, dated 2012):

What was measured:
PK1R [1] = target: T1, PK1R (Rattus norvegicus, UniProt Q8R416); conditions: test compound 1 μM basolateral, 15 min; PK1 10 and 100 nM cumulative; FIGS. 9-11
Protocol: Methodology. The basic methodology for Using-type ion flux chambers used in these studies was the same as that described in detail above with the following modifications to the experimental protocol. […] The responses to two sequential EFS were used to guage tissue viability and comparability of the responses of individual tissues from each rat and between rats. Tissue conductance was measured at periodic intervals as changes in the amplitudes of brief short-circuit current responses evoked by application of 1 mV amplitude bi-polar pulses from a pulse generator using Ohm's Law. Three to four tissues from each rat were studied. The tissues from a given animal were grouped and assigned accordingly: one control tissue which received only vehicle followed by two consecutive doses of PK1 ligand added in a cumulative fashion to the basolateral surface of the tissue; the remaining two to three tissues from the same animal were assigned to be exposed to a given PK1 receptor antagonist (e.g., 3-4 tissues from 1 rat: Control, Antagonist1, Antagonist2, Antagonist3). Test compound was added to the basolateral tissue side reservoir at a final concentration of 1 μM and allowed a 15 minute incubation period prior to challenge with the PK1 peptide. At the end of this 15 minute exposure period, PK1 ligand at 10 and 100 nM was added in a cumulative fashion to each tissue to characterize the inhibitory effect of the test compound. At the conclusion of the experiment, EFS was re-applied to guage tissue viability and stability of responsiveness.

PK1R [2] = target: T1, PK1R; assay: Inhibition of PK1-induced contraction of rat ileal longitudinal smooth muscle by PK1R antagonists (organ bath); set-up: from tissue; host or cells: isolated rat ileum (organ bath); conditions: FIG. 19
Excerpt: The effects of PK1 on isolated segments of rodent gastrointestinal (GI) tissues have been studied ex vivo, using a “myobath” apparatus. This organ bath apparatus is used to measure the changes in contractile activity of GI smooth muscle following application of PK1, in the presence or absence of compounds that block PK1 receptor (PK1R)-mediated increases in intracellular free Ca^2+ in PK1R-transfected cells in vitro.
Methods. Rodents (mice, rats, and guinea pigs) were euthanized by […], and exsanguinated. Segments of GI tissues, including stomach, duodenum, jejunum, ileum, proximal colon and distal colon were resected from the animals and mounted, either as intact segments (i.e., 15 mm long cylinders of intestine) or flat strips (˜2.5 mm×15 mm) oriented along the longitudinal muscle axis. In some experiments flat strips were oriented along the circular muscle axis. […]
The tissues were lengthened to impart a resting load of between […] (depending on the preparation), and equilibrated under these conditions for 1 hr, changing the bathing solution to fresh KRB every 15 min. […] The response to PK1 under these conditions is compared to the response of the same tissue preparation to ACh and the contraction (or relaxation) calculated as a percent of the response to ACh. […]

[3] = target: T2, basolateral Na+-K+-2Cl- co-transporter (Rattus norvegicus, UniProt E9PTX9); conditions: bumetanide 500 μM
T2 sequence (E9PTX9 1-1203): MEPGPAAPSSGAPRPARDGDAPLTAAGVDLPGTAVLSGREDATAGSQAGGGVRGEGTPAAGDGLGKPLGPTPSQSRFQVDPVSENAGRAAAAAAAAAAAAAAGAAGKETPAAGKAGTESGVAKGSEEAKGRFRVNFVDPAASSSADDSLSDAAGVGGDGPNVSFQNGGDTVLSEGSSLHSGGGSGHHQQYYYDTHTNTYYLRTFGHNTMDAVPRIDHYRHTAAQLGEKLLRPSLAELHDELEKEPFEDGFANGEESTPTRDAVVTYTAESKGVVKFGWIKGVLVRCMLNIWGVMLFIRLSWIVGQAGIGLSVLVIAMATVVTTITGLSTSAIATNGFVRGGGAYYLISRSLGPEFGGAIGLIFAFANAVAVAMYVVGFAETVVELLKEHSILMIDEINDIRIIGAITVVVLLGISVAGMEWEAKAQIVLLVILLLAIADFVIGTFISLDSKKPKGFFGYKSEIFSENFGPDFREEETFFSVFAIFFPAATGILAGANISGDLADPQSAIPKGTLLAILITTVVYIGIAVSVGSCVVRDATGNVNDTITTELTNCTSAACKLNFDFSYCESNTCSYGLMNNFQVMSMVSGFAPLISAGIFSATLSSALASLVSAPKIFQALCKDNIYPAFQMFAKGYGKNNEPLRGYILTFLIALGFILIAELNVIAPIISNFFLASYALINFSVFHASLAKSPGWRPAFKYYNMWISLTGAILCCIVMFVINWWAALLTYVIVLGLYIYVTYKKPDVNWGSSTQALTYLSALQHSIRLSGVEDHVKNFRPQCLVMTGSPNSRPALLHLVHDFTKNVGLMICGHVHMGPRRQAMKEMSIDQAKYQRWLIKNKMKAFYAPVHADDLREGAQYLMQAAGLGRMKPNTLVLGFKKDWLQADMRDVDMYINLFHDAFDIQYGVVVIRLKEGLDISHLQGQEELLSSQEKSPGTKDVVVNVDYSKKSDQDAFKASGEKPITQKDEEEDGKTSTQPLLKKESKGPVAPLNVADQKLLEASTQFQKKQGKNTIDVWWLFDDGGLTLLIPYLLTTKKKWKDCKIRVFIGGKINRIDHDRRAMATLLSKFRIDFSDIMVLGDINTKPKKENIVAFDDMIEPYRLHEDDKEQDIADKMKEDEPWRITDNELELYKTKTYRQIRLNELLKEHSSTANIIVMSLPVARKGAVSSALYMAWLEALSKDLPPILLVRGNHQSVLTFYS
Excerpt: Methodology. The basic methodology for Using-type ion flux chambers used in these studies was the same as that described in detail above with the following modifications to the experimental protocol. To determine the mechanism of action of the pro-secretory action of PK1 on the epithelium, three separate approaches were utilized to abolish electrogenic chloride ion or bicarbonate ion transport across the epithelium. […] The second approach involved replacement of all chloride ions in the physiological buffer solution used to maintain living tissues in the Using chambers, thus substituting a chloride-free KRB solution by an equimolar substitution of isethionate and acetate salts for the chloride salts listed in the standard KRB recipe above. The third approach involved replacement of all bicarbonate ions in the physiological buffer solution, thus substituting a bicarbonate-free KRB solution by an equimolar substitution of Piperazine-N,N′-bis(2-ethanesulfonic acid) (PIPES) for the bicarbonate salt, and addition of 1 mM acetazolamide, a blocker of intracellular carbonic anhydrase, to prevent bicarbonate production by the enterocyte.

rat small intestine [4] = assay: Small intestinal transit of an oral carmine test meal in rats in vivo; conditions: oral PK1 100 μg/kg; 30 min; FIG. 14
Protocol: Methodology. Small intestinal transit. Rats received a bolus of 1.5 ml total volume that contained a 6% solution of carmine dye in 0.5% methyl cellulose (wt/vol) together with a dose of either PK1 (100 μg/kg) or vehicle by oral feeding tube. After 30 min, the rats were rapidly euthanized by cervical dislocation after inhalation anesthesia with 100% carbon dioxide. The entire small intestine of each rat was carefully resected starting at the ileal-cecal junction first and working back toward the pylorus of the stomach until the entire small intestine had been removed intact. The excised small bowel was arranged lengthwise along a metric straight-edge, and the length of the entire small intestine was measured in centimeters. The leading edge of the carmine dye front was visualized and the distance traveled by the carmine was also measured and calculated as a percentage of the total excised length of the small intestine. Transit was expressed as the percentage of the total intestinal length traveled by the carmine dye in 30 minutes.

[5] = test system: ileum mucosal tissues from PK1 receptor knock-out mice; assay: PK1-evoked Isc in ileum mucosal tissues from PK1 receptor knock-out mice; conditions: exogenous PK1 peptide; FIG. 5
rat small intestine [6] = assay: Enteropooling and accumulation of fluid in rat small intestine in vivo; conditions: 30 min
Protocol: Methodology. Experiments were carried out to gravimetrically measure the in vivo pro-secretory effect of PK1 peptide in the rat small bowel. The effect of PK1 peptide on stimulation of enteropooling and accumulation of fluid in the gut of intact rats was evaluated using two different routes of administration. Non-fasted rats were randomly assigned to two experimental groups (n=10 per group) in two separate experiments. In the first experiment, each rat was given an oral bolus (1.5 ml) of 6% carmine dye in 0.5% methylcellulose wt/vol containing a dose of PK1 peptide at 100 μg/kg or buffer vehicle. (See FIG. 12). […] (See FIG. 13). Thirty minutes later, rats were rapidly euthanized by cervical dislocation after inhalation anesthesia with 100% carbon dioxide and the entire small intestine was excised from the pylorus to the ileocecal junction. The total small bowel length was measured and then divided equally into thirds using 4-0 silk suture loops to ligate, isolate, and separate each segment to prevent leakage of intraluminal contents. […] Net fluid content weight was calculated as the difference between intact and empty intestinal segment weights to the nearest milligram and normalized to segment wet tissue weight in grams.

rat ileum = assay: Contractility of isolated rat GI segments ex vivo (myobath organ bath), response to PK1

T1 sequence (Q8R416 whole entry): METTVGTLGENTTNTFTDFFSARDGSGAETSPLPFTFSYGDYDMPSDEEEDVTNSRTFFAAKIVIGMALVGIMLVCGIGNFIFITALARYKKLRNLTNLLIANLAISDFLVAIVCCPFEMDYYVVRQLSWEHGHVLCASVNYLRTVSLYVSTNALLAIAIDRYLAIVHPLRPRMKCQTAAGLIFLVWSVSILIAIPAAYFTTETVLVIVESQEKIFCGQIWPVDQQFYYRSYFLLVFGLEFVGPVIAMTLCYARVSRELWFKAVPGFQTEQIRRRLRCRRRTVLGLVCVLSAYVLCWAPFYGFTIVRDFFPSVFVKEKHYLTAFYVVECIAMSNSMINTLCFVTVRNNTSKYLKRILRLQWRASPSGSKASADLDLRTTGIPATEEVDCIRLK

## [H]/N=C(\N)NCCNc1nc(=O)n(Cc2ccc(F)cc2)c(=O)n1Cc1ccc(OC)cc1 [JNJ 27624675]
PK1R [1]
  suppression of the PK1 evoked increase in Isc: suppressed

## COc1ccc(Cn2c(NCCNC(=N)NC(C)C)nc(=O)n(Cc3ccc(Cl)c(Cl)c3)c2=O)cc1 [JNJ 28480894]
PK1R [1]
  suppression of the PK1 evoked increase in Isc: suppressed

## COc1ccc(Cn2c(NCCn3c(N)nc4ccccc43)nc(=O)n(Cc3ccc(F)cc3)c2=O)cc1 [JNJ 28845557]
PK1R [2]
  early versus late response inhibition: more potent and more effective at inhibition of the early response
PK1R [2]; early and late components
  effect on the PK1-induced contraction of rat ileal longitudinal smooth muscle: concentration-dependent inhibitory effect
PK1R [1]
  suppression of the PK1 evoked increase in Isc: suppressed

## CCCCNc1cc(C(=O)O)cc(S(N)(=O)=O)c1Oc1ccccc1 [bumetanide, Bumetanide]
[3]
  effect on baseline G: did not significantly change
[3]; n=5, not significantly different from DMSO vehicle
  change in baseline Isc after addition to the serosal bathing solution: −7.1+/−8.6 μA/cm^2
[3]; serosal
  attenuation of the PK1-evoked increase in Isc: > 90%

B1: PK1: recombinant human Prokineticin 1 expressed in HEK 293 cells, FLAG tag cleaved; mixture of full-length and four C-terminal residue truncated product (protein, UniProt P58294 20-105, looked up)
Prokineticin-1: AVITGACERDVQCGAGTCCAISLWLRGLRMCTPLGREGEECHPGSHKVPFFRKRKHHTCPCLPNLLCSRFPDGRYRCSMDLKNINF
modifications: mixture with C-terminal 4-residue truncated form
notes: recombinant human Prokineticin 1 expressed in HEK 293 cells, FLAG tag cleaved; mixture of full-length and four C-terminal residue truncated product
Rat small intestine [4]
  small intestinal transit of a carmine test meal compared to vehicle: significantly accelerated
[5]
  change in Isc in tissues from PK1 receptor knock-out mice compared to wild-type littermates: did not elicit a significant change in Isc
Rat small intestine [6]; intraperitoneal PK1 100 μg/kg, FIG. 13
  fluid accumulation in rat small bowel in vivo: stimulates fluid accumulation
Rat small intestine [6]; oral PK1 100 μg/kg, FIG. 12
  fluid accumulation in rat small bowel in vivo: stimulates fluid accumulation
Rat ileum; PK1 100 nM
  response of intestinal tissues (mid-duodenum, jejunum, distal ileum): evoked longitudinal contractions
  response of proximal and distal colon: evoked longitudinal relaxations
Rat ileum; isolated rat ileum
  time to peak contraction, early phase: 6.4 min
  time to peak contraction, late phase: 53.8 min
